Data: patent publication US20210284621A1 (priority 2018, published 2021)
pKi: −log10 of the molar value.

Tests used:
CB1 receptor = CB1 receptor (Homo sapiens, UniProt P21554); test: CB1 competitive radioligand binding assay ([3H] SR141716A); design: expressed in transfected cells; host or cells: Chem-1 cells; details: for inhibition at 0.5 µM: 0.5 μM compound, 2.0 nM [3H] SR141716A, 90 min 37° C.
Procedure: (§1) J Med Chem. 41(26): 5177-5187 (1998); and Munro S., et al. Molecular characterization of a peripheral receptor for cannabinoids. Nature 365:61-65 (1993).
CB1 Radioligand Binding Assay: A compound of the invention (0.5 μM in 1% DMSO) was incubated with Chem-1 cells expressing human recombinant CB1 receptor in buffer (50 mM HEPES, pH 7.4, 5 mM MgCl2, 1 mM CaCl2, 0.2% BSA) for 90 minutes at 37° C. in the presence of 2.0 nM [H^3] SR141716A (CB1 radioligand). % Inhibition was determined as a function of radioligand binding to the CB1 receptor.

CB2 receptor = CB2 receptor (Homo sapiens, UniProt P34972); test: CB2 competitive radioligand binding assay ([3H] WIN-55,212-2); design: expressed in transfected cells; host or cells: CHO-K1 cells; details: for inhibition at 0.05 µM: 0.05 μM compound, 2.4 nM [3H] WIN-55,212-2, 90 min 37° C.
Procedure: as §1
CB2 Radioligand Binding Assay: A compound of the invention (0.05 μM in 1% DMSO) was incubated with CHO-K1 cells expressing human recombinant CB2 receptor in buffer (20 mM HEPES, pH 7.0, 0.5% BSA) for 90 minutes at 37° C. in the presence of 2.4 nM [H^3] WIN-55,212-2 (CB2 radioligand). % Inhibition was determined as a function of radioligand binding to the […].

LPS-induced PBMCs = test: Inflammatory cytokine release from LPS-induced PBMCs (Luminex); format: cell-based, human; details: fold change from LPS-treated PBMCs, compounds 10 μM (DEX 1 μg/ml) 2 h, then LPS 0.1 μg/ml 24 h, negative = reduced
Procedure: Compounds of the invention were assayed for their effect on inflammatory cytokine release from lipopolysaccharides (LPS)-induced PBMCs, isolated from a human blood sample, the results of which are provided in Table 7 as fold change. Exemplary methods for quantifying secretion of inflammatory cytokines in PBMCs are known in the art, for example, as described in Hailer et al., Infection and Immunity. 68(2):752-759 (2000); and Merlini et al., Frontiers in Immunology. 7:614 (2016); each of which is incorporated herein by reference with respect to methods for evaluating cytokine release in PBMCs.
In brief, human blood samples from healthy volunteers were collected and PBMCs were isolated. PBMCs were cultured and each compound was assayed in triplicate at a final concentration of 10 μM for 2 hours. 1 μg/ml dexamethasone (DEX) served as a positive control. LPS was added at a final concentration of 0.1 μg/ml and further incubated for 24 hours. At the end of the incubation, the supernatants were collected and the levels of a panel of secreted cytokines were measured by a Human Magnetic Luminex® assay (R&D). The results in Table 7 are presented as a fold change from LPS-treated PBMCs. Reduced levels are expressed by negative values. OOR denotes values that are out of the standard curve range for the specific cytokine and thus, could not be accurately measured. Cytotoxicity was also determined. Compounds with cytotoxicity ≥50% was considered cytotoxic. Baseline cytotoxicity of untreated PBMCs was 17% and all compounds presented in Table 7 induced cytotoxicity below 25%.

[1] = OOR = out of standard curve range

CB1 receptor, sequence (P21554 whole entry): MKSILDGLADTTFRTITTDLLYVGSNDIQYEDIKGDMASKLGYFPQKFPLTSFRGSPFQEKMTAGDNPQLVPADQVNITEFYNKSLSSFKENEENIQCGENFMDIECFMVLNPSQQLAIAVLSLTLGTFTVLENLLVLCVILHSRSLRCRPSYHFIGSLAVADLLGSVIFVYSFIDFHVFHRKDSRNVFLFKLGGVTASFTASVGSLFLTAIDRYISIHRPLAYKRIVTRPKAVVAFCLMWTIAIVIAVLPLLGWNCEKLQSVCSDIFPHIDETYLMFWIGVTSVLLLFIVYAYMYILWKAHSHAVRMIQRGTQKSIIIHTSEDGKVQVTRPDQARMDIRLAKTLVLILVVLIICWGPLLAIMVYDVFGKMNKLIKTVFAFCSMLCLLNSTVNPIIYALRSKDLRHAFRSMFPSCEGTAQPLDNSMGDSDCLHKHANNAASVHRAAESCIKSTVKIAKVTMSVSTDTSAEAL
CB2 receptor, sequence (P34972 whole entry): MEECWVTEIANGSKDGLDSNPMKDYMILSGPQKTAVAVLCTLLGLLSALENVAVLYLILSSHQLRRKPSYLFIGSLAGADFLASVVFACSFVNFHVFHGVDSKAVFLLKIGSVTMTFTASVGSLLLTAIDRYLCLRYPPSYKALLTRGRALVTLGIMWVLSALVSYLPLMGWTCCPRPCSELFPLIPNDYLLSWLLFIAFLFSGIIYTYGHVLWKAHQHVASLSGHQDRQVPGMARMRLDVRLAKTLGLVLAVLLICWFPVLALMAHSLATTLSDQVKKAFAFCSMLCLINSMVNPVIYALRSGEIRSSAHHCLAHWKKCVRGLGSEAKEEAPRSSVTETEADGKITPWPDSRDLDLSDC

SMILES	inhibition at 0.5 µM (CB1 receptor) [%]	inhibition at 0.05 µM (CB2 receptor) [%]	pKi (CB1 receptor)	pKi (CB2 receptor)	Fold Selectivity (CB1/CB2) (CB2 receptor; Table 3, ratio of Ki CB1/CB2)	also measured
CCCCCCC(C)(C)c1cc(O)c2c(c1)OC(C)(C)[C@@H]1CC=C(C(N)=O)C[C@@H]21 [Compound 4, (6aR,10aR)-1-Hydroxy-6,6-dimethyl-3-(2-methyloctan-2-yl)-6a,7,10,10a-tetrahydro-6H-benzo[c]chromene-9-carboxamide]	70	57	–	–	–	–
CCCCCCC(C)(C)c1cc(OC)c2c(c1)OC(C)(C)[C@@H]1CC=C(C(=O)NCCO)C[C@@H]21 [Compound 7, (6aR,10aR)-N-(2-Hydroxyethyl)-1-methoxy-6,6-dimethyl-3-(2-methyloctan-2-yl)-6a,7,10,10a-tetrahydro-6H-benzo[c]chromene-9-carboxamide]	21	11	–	–	–	–
CCCCCCCC(C)(C)c1cc(O)c2c(c1)OC(C)(C)[C@@H]1CC=C(C(=O)O)C[C@@H]21 [Compound 9, (6aR,10aR)-1-Hydroxy-6,6-dimethyl-3-(2-methylnonan-2-yl)-6a,7,10,10a-tetrahydro-6H-benzo[c]chromene-9-carboxylic acid]	-8	18	–	–	–	–
CCCCCCC(C)(C)c1cc(O)c2c(c1)OC(C)(C)[C@@H]1CC=C(C(=O)Oc3ccc(C(N)=S)cc3)C[C@@H]21 [Compound 10, 4-Carbamothioylphenyl (6aR,10aR)-1-hydroxy-6,6-dimethyl-3-(2-methyloctan-2-yl)-6a,7,10,10a-tetrahydro-6H-benzo[c]chromene-9-carboxylate]	7	11	–	–	–	–
CCCCCCC(C)(C)c1cc(O)c2c(c1)OC(C)(C)[C@@H]1CC=C(C(=O)N[C@H]3CC[C@H](O)CC3)C[C@@H]21 [Compound 17, (6aR,10aR)-1-Hydroxy-N-(trans-4-hydroxycyclohexyl)-6,6-dimethyl-3-(2-methyloctan-2-yl)-6a,7,10,10a-tetrahydro-6H-benzo[c]chromene-9-carboxamide]	23	8	–	–	–	–
CCCCCCC(C)(C)c1cc(O)c2c(c1)OC(C)(C)[C@@H]1CC=C(C(=O)N[C@H]3CC[C@@H](O)CC3)C[C@@H]21 [Compound 18, (6aR,10aR)-1-Hydroxy-N-(cis-4-hydroxycyclohexyl)-6,6-dimethyl-3-(2-methyloctan-2-yl)-6a,7,10,10a-tetrahydro-6H-benzo[c]chromene-9-carboxamide]	5	26	–	–	–	–
CCCCCCC(C)(C)c1cc(OC(C)=O)c2c(c1)OC(C)(C)[C@@H]1CC=C(C#N)C[C@@H]21 [Compound 19, (6aR,10aR)-9-Cyano-6,6-dimethyl-3-(2-methyloctan-2-yl)-6a,7,10,10a-tetrahydro-6H-benzo[c]chromen-1-yl acetate]	111	115	8.17	8.72	–	Fold Selectivity (CB1/CB2) (CB2 receptor; Table 2, ratio of Ki CB1/CB2): 4
CCCCCCC(C)(C)c1cc(O)c2c(c1)OC(C)(C)[C@@H]1CC=C(C(=O)NC34CC5CC(CC(C5)C3)C4)C[C@@H]21 [Compound 42, (6aR,10aR)-N-(adamantan-1-yl)-1-hydroxy-6,6-dimethyl-3-(2-methyloctan-2-yl)-6a,7,10,10a-tetrahydro-6H-benzo[c]chromene-9-carboxamide]	–	–	7.23	6.76	0.3	–
CCCCCCC(C)(C)c1cc(O)c2c(c1)OC(C)(C)[C@@H]1CC=C(C(=O)NC34CC5CC(CC(O)(C5)C3)C4)C[C@@H]21 [Compound 43, (6aR,10aR)-1-hydroxy-N-(3-hydroxyadamantan-1-yl)-6,6-dimethyl-3-(2-methyloctan-2-yl)-6a,7,10,10a-tetrahydro-6H-benzo[c]chromene-9-carboxamide]	–	–	6.05	7.12	11.8	–
CCCCCCC(C)(C)c1cc(O)c2c(c1)OC(C)(C)[C@@H]1CC=C(C(=O)N[C@@H](C)CCO)C[C@@H]21 [Compound 98, (6aR,10aR)-1-hydroxy-N—((S)-4-hydroxybutan-2-yl)-6,6-dimethyl-3-(2-methyloctan-2-yl)-6a,7,10,10a-tetrahydro-6H-benzo[c]chromene-9-carboxamide]	–	–	6.49	8.00	32.0	–
CCCC(C)(C)c1cc(O)c2c(c1)OC(C)(C)[C@@H]1CC=C(C(=O)NC(C)(C)C(F)(F)F)C[C@@H]21 [Compound 101]	–	–	< 5.30	7.08	>60	–
CCCCCCC(C)(C)c1cc(O)c2c(c1)OC(C)(C)[C@@H]1CC=C(C(=O)NC#N)C[C@@H]21 [Compound 106, (6aR,10aR)-N-cyano-1-hydroxy-6,6-dimethyl-3-(2-methyloctan-2-yl)-6a,7,10,10a-tetrahydro-6H-benzo[c]chromene-9-carboxamide]	–	–	6.10	6.09	1.0	–
CC(C)(CCCCCC(=O)O)c1cc(O)c2c(c1)OC(C)(C)[C@@H]1CC=C(C(=O)O)C[C@@H]21 [Compound 111, (6aR,10aR)-3-(7-carboxy-2-methylheptan-2-yl)-1-hydroxy-6,6-dimethyl-6a,7,10,10a-tetrahydro-6H-benzo[c]chromene-9-carboxylic acid]	–	–	< 5.52	< 5.52	–	–
CCCCCCC(C)(C)c1c(Cl)c(O)c2c(c1Cl)OC(C)(C)[C@@H]1CC=C(C(=O)O)C[C@@H]21 [Compound 113, (6aR,10aR)-2,4-dichloro-1-hydroxy-6,6-dimethyl-3-(2-methyloctan-2-yl)-6a,7,10,10a-tetrahydro-6H-benzo[c]chromene-9-carboxylic acid]	–	–	< 5.52	< 5.52	–	–
C[C@@H]1C[C@H]2[C@@H]3CCC4=CC(=O)C=C[C@]4(C)[C@@]3(F)[C@@H](O)C[C@]2(C)[C@@]1(O)C(=O)CO [DEX, dexamethasone, reference compound]	–	–	–	–	–	IL17A (LPS-induced PBMCs): −1.5 fold change; IL-1β (LPS-induced PBMCs): −3.8 fold change; IL-4 (LPS-induced PBMCs): −1.5 fold change; IL-6 (LPS-induced PBMCs): −3.9 fold change; IL-8 (LPS-induced PBMCs): −1.0 fold change; IL-10 (LPS-induced PBMCs): −2.0 fold change; MCP-1 (LPS-induced PBMCs): −1.7 fold change; TNFα (LPS-induced PBMCs): −6.0 fold change; IL-12 (p70) (LPS-induced PBMCs; [1]): −4.5 fold change; L-31 (LPS-induced PBMCs; [1]): −1.6 fold change
